Results from paper PMC8465649, “Semaphorin 3A—Glycosaminoglycans Interaction as Therapeutic Target for Axonal Regeneration” (Pharmaceuticals, 2021).

Columns and labels:
[1] = WaterLOGSY NMR direct binding to heparin agarose; conditions: 1D 1H WaterLOGSY
Description: Figure 6 (a) Chemical structures of triprotonated SICHI and CSIC02–04, as the main species in aqueous medium at neutral pH, and relative increase in MB absorbance at 665 nm versus charge ratio after the addition of the peptoids to the preformed MB/heparin complex (4.71 µM Hep repeating units + 9.83 µM MB in 5 mM Tris buffer at pH = 7.5). (b) 1D ^1H WaterLOGSY NMR experiments showing that CSIC02 binds to heparin agarose resin (used as a GAG mimetic).
As a simple way to characterize the GAG binding behavior, we applied the method previously described by Jiao et al., using the cationic dye known as methylene blue (MB) in a colorimetric competition assay. […] Next, we assessed the integrity and solubility of CSIC02 by NMR. […] Direct binding of CSIC02 to GAGs was qualitatively assessed by specific NMR experiments.
Next, 1D ^1H T1ρ relaxation filtered and WaterLOGSY NMR experiments were acquired at 25 °C on a 500-MHz spectrometer (Varian Inova; Agilent Technologies, Santa Clara, CA, USA) equipped with an AutoX inverse double-resonance probe with a z-shielded pulsed-field gradient coil. […] The experiments were recorded using the standard pulse sequence in the (WLOGSY_ES) Chempack library, with excitation sculpting to suppress water resonances. […]

[2] = system: SCTWT–heparin interaction; experiment: 2D 1H-15N HSQC CSP: displacement of SCTWT from dp14 heparin; assay type: binding, human; conditions: 0.2 mM SCTWT, 0.05 mM dp14 heparin, 4 mM CSIC02, pH 4.5
Description: NMR competition experiments involved the acquisition of 1D-^1H WaterLOGSY or spin-lock filtered NMR spectra. Thus, FS2 peptide is displaced from heparin agarose resin by CSIC02 (1:1 peptoid/FS2, both 1 mM), but not by CSIC03 (Figure S15). […] We reasoned that if CSIC02 was able to interact with GAG and displace FS2/FS3 basic peptides, it may also interfere with SCTWT–heparin interaction. To investigate if CSIC02 could displace SCTWT from heparin dp14 and to define the SCTWT residues affected, 2D NMR ^1H-^15N HSQC CSP experiments were used. Figure 8a illustrates the chemical shift effects of CSIC02 addition to a sample of SCTWT containing dp14 heparin. […] In Figure 8b, we display the chemical shift perturbation of SCTWT NMR spectra in the presence of dp14 and CSIC02. Thus, as the two CSP plots in Figure 4b and Figure 8b were calculated using as reference SCTWT alone in solution, we can compare them directly. […]
Figure 8 (a) Overlay of [^1H-^15N]-HSQC spectra of 0.2 mM Sema3A C-terminal region (orange) highlighting the changes of 0.05 mM (or 0.35 mM in disaccharide units) dp14 heparin oligosaccharide binding in the absence (purple) and the presence (turquoise) of 4 mM CSIC02. […] The absolute values of the chemical shift differences between the presence and absence of dp14 are plotted in ppm and calculated comparing with the chemical shifts of the protein alone. […]

CCN(CC)CCN(CC(=O)N(CCN1CCCC1)CC(=O)N(CCC1CCCN1C)CC(N)=O)C(=O)OCc1ccccc1 (centres unmarked) [CSIC02]
binding to heparin agarose (qualitative) [1]: binding | effect on dp14 heparin-induced chemical shift perturbations of SCTWT [2]: modest decrease in dp14-induced perturbations
